# From paper PMC12281424, “A Rac-specific competitive inhibitor of guanine nucleotide binding reduces metastasis in triple-negative breast cancer” (Cell Reports Medicine, 2025)
# Columns and labels:
# Ret (V804L)(h) = Ret (V804L)(h) (Homo sapiens, UniProt P07949, V804L); test: Kinase Profiler; assay type: biochemical
# Procedure: (§1) The kinase profiler was performed by the company Eurofins (Discovery, Panlab and Cerep).
# BMPR2(h) = BMPR2(h) (Homo sapiens, UniProt Q13873); test: Kinase Profiler; assay type: biochemical
# Procedure: (§2) Blood cell counts, kinase profiler, safety screen, bacterial cytotoxicity, Ames, micronucleus assays were performed by the company Eurofins (France). The kinase profiler was performed by the company Eurofins (Discovery, Panlab and Cerep).
# Abl (M351T)(h) = Abl (M351T)(h) (Homo sapiens, UniProt P00519, M351T); test: Kinase Profiler; assay type: biochemical
# Procedure: as §1
# PI3K (p110a/p85a)(h) = PI3K (p110a/p85a)(h) (Homo sapiens, UniProt P42336); test: Kinase Profiler; assay type: biochemical
# Procedure: as §1
# TTBK2(h) = TTBK2(h) (Homo sapiens, UniProt Q6IQ55); test: Kinase Profiler; assay type: biochemical
# Procedure: as §1
# FAK(h) = FAK(h) (Homo sapiens, UniProt Q05397); test: Kinase Profiler; assay type: biochemical
# Procedure: as §1
# Rsk3(h) = Rsk3(h) (Homo sapiens, UniProt Q15349); test: Kinase Profiler; assay type: biochemical
# Procedure: as §1
# CHK1(h) = CHK1(h) (Homo sapiens, UniProt O14757); test: Kinase Profiler; assay type: biochemical
# Procedure: as §1
# EGFR(L858R)(h) = EGFR(L858R)(h) (Homo sapiens, UniProt P00533, L858R); test: Kinase Profiler; assay type: biochemical
# Procedure: as §1
# [1] = tested on: Glutamate, NMDA, Phencyclidine; test: Safety screen; assay type: binding, rat
# Procedure: as §2
# [2] = tested on: Protein Ser/Thr Kinase, PKC, Non- Selective; test: Safety screen; assay type: biochemical, rat
# Procedure: as §1
# PKCβI(h) = PKCβI(h) (Homo sapiens, UniProt P05771); test: Kinase Profiler; assay type: biochemical
# Procedure: as §1
# [3] = biological target: PI3K (p110a(H1047R)/p85a)(h) (Homo sapiens, UniProt P42336, H1047R); test: Kinase Profiler; assay type: biochemical
# Procedure: as §1
# Aurora-A(h) = Aurora-A(h) (Homo sapiens, UniProt O14965); test: Kinase Profiler; assay type: biochemical
# Procedure: as §2
# ACTR2(h) = ACTR2(h) (Homo sapiens, UniProt P27037); test: Kinase Profiler; assay type: biochemical
# Procedure: as §1
# Ret(h) = Ret(h) (Homo sapiens, UniProt P07949); test: Kinase Profiler; assay type: biochemical
# Procedure: as §1
# ALK4(h) = ALK4(h) (Homo sapiens, UniProt P36896); test: Kinase Profiler; assay type: biochemical
# Procedure: as §1
# MAP4K4(h) = MAP4K4(h) (Homo sapiens, UniProt O95819); test: Kinase Profiler; assay type: biochemical
# Procedure: as §1
# PRP4(h) = PRP4(h) (Homo sapiens, UniProt Q13523); test: Kinase Profiler; assay type: biochemical
# Procedure: as §1
# [4] = biological target: Cholecystokinin CCK2 (CCKB) (Homo sapiens, UniProt P32239); test: Safety screen; assay type: binding
# Procedure: Blood cell counts, kinase profiler, safety screen, bacterial cytotoxicity, Ames, micronucleus assays were performed by the company Eurofins (France).
# Abl(Y253F)(h) = Abl(Y253F)(h) (Homo sapiens, UniProt P00519, Y253F); test: Kinase Profiler; assay type: biochemical
# Procedure: as §1
# Opiate κ(OP2, KOP) = Opiate κ(OP2, KOP) (Homo sapiens, UniProt P41145); test: Safety screen; assay type: binding
# Procedure: as §2
# Sequence of PKCβI(h) (P05771 whole entry): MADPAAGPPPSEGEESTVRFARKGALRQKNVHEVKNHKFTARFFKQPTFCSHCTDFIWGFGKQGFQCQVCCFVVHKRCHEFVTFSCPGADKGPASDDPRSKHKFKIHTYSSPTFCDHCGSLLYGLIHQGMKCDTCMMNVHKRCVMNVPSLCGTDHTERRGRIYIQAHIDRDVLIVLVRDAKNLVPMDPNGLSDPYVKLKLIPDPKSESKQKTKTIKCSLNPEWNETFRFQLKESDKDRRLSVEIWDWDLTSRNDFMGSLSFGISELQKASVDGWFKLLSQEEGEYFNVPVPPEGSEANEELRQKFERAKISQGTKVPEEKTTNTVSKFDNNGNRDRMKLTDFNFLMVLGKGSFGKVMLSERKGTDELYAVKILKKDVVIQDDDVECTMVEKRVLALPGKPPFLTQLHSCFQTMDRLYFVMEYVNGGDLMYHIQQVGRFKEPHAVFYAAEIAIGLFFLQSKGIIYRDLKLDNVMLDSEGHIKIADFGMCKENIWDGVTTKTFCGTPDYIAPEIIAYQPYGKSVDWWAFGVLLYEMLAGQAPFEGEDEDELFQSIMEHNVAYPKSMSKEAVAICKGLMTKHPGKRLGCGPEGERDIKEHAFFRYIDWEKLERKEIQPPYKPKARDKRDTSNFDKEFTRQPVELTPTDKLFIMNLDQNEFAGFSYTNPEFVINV
# Sequence of MAP4K4(h) (O95819 whole entry): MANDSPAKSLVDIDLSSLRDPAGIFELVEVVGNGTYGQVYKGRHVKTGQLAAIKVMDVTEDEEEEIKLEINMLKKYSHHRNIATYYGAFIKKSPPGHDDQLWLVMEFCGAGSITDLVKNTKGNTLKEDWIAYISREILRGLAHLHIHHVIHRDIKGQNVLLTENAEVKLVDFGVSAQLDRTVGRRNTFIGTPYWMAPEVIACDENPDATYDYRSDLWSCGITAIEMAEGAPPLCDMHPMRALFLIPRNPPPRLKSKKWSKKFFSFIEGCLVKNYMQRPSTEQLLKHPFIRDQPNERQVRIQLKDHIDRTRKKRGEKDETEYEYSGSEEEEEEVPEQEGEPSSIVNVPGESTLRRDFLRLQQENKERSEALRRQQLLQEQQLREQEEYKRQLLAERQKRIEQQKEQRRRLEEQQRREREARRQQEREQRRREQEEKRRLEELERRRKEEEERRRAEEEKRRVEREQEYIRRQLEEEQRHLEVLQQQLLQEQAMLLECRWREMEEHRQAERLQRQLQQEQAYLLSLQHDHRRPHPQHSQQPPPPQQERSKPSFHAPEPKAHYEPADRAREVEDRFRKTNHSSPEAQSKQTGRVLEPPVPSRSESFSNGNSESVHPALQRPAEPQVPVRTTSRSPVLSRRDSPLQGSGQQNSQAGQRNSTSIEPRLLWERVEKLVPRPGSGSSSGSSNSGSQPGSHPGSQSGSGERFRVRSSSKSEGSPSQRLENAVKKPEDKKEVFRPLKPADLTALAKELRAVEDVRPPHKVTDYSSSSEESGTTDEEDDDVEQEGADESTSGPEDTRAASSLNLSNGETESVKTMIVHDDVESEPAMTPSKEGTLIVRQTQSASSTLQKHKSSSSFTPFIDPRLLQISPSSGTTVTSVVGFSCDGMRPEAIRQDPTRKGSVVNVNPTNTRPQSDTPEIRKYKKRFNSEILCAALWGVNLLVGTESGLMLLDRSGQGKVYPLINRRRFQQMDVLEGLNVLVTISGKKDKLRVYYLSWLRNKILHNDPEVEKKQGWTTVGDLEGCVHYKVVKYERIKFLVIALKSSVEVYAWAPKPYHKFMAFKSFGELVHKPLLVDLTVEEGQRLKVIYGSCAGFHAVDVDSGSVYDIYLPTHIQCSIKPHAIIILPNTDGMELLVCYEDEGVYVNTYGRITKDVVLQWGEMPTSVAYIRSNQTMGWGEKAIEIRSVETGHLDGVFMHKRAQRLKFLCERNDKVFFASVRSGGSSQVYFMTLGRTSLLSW
# Sequence of PI3K (p110a/p85a)(h) (P42336 whole entry): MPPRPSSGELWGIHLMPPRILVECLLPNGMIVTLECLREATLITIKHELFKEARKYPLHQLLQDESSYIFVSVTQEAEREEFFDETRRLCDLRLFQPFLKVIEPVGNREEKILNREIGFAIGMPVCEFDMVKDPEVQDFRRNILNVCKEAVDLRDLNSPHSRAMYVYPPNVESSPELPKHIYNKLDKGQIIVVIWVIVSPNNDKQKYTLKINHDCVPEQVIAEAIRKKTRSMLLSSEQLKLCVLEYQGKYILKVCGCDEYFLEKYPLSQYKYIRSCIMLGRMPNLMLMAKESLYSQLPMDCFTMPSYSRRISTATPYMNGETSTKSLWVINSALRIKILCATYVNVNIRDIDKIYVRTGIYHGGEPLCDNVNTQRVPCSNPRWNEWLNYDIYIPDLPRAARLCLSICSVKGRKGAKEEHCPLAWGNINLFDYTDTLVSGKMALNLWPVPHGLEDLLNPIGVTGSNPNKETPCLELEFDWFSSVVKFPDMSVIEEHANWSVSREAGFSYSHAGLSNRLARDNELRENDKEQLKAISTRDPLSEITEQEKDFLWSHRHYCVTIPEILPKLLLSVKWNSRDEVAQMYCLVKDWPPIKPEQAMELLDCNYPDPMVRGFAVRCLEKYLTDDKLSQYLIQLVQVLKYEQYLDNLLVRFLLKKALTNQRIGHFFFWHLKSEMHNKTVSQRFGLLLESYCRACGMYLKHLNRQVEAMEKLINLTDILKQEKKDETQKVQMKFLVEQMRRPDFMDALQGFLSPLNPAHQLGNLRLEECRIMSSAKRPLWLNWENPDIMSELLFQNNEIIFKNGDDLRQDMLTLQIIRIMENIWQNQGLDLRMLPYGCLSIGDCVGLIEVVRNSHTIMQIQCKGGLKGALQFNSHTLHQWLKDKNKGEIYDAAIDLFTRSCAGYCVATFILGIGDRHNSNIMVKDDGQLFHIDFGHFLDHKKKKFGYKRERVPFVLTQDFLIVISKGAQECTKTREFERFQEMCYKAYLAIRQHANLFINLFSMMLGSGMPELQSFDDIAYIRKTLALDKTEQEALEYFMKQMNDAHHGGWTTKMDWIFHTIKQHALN
# Sequence of PI3K (p110a/p85a)(h) (P27986 whole entry partner): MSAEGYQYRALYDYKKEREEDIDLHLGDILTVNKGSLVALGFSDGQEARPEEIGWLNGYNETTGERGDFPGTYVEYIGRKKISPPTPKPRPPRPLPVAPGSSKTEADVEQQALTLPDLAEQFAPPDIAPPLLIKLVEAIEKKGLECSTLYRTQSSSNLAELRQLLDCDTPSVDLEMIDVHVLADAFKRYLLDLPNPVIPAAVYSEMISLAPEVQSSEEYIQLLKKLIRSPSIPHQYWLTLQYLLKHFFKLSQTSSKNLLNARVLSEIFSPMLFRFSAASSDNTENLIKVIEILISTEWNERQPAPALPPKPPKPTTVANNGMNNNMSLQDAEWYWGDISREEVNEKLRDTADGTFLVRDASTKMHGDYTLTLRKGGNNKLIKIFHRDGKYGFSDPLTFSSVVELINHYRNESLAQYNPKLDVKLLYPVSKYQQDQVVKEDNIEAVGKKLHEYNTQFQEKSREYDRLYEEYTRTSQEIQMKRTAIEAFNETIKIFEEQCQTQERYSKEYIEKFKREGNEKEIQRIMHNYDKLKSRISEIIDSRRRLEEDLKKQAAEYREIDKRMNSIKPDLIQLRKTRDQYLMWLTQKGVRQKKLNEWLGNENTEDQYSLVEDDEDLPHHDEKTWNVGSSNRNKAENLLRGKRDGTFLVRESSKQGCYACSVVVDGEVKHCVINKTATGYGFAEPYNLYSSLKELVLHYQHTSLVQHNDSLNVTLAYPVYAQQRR
# Sequence of Cholecystokinin CCK2 (CCKB) (P32239 whole entry): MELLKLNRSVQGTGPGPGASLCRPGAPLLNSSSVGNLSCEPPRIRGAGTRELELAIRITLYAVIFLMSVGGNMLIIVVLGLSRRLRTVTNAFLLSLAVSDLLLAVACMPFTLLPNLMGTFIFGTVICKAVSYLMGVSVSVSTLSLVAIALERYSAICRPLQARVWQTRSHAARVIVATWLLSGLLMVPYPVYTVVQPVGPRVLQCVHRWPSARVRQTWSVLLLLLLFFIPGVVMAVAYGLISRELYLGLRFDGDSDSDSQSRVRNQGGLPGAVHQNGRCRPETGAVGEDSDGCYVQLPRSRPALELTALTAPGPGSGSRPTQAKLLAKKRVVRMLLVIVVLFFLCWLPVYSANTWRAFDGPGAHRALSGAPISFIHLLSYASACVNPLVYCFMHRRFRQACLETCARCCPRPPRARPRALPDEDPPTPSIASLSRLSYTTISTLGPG
# Sequence of Rsk3(h) (Q15349 whole entry): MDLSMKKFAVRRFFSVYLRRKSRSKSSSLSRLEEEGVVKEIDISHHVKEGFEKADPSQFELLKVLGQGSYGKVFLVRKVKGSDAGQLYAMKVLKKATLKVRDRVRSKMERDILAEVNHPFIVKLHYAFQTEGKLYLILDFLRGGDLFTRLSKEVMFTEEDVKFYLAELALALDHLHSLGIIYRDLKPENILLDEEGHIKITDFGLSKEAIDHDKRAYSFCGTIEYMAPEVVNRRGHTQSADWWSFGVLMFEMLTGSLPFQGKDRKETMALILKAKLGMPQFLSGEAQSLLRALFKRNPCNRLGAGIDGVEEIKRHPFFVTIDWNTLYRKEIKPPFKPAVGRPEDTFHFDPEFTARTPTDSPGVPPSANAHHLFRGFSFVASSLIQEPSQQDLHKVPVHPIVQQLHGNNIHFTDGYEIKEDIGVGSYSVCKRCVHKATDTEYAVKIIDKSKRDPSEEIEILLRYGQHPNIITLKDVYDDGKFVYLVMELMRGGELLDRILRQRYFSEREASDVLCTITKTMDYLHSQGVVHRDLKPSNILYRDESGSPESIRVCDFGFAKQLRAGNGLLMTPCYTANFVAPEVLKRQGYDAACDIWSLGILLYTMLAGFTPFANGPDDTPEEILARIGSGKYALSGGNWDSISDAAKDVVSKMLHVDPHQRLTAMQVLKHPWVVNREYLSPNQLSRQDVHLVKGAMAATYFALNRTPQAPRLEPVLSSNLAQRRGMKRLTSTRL
# Sequence of PI3K (p110a(H1047R)/p85a)(h) (P42336 whole entry H1047R): as the sequence (P42336 whole entry) above, with H1047R counted along it
# Sequence of PI3K (p110a(H1047R)/p85a)(h) (P27986 whole entry partner): as the sequence (P27986 whole entry partner) above
smiles,measurement,setting,value
COc1ccc(OC)c(NS(=O)(=O)c2ccc(NC(=O)CCSc3ccc(C)cc3)cc2)c1 [Compound A41],Activity(%),Ret (V804L)(h),93%
same,Activity(%),BMPR2(h),100%
same,Activity(%),Abl (M351T)(h),111%
same,Activity(%),PI3K (p110a/p85a)(h),100%
same,Activity(%),TTBK2(h),106%
same,Activity(%),FAK(h),111%
same,Activity(%),Rsk3(h),93%
same,Activity(%),CHK1(h),120%
same,Activity(%),EGFR(L858R)(h),104%
same,% inh.,[1],-6%
same,% inh.,[2],48%
same,Activity(%),PKCβI(h),98%
same,Activity(%),[3],97%
same,Activity(%),Aurora-A(h),124%
same,Activity(%),ACTR2(h),108%
same,Activity(%),Ret(h),104%
same,Activity(%),ALK4(h),101%
same,Activity(%),MAP4K4(h),107%
same,Activity(%),PRP4(h),110%
same,% inh.,[4],0%
same,Activity(%),Abl(Y253F)(h),102%
same,% inh.,"Opiate κ(OP2, KOP)",10%
